Assays:
[1] = system: RS; assay: RS test
Protocol: (§1) This example provides results of four tests that were conducted on certain illustrative non-natural amino acids as an aid for predicting their properties for incorporation into non-natural amino acid polypeptides.

[2] = Oxime stability pH 4-8 (testing non-natural amino acids); type: physicochemical
Protocol: as §1

Oxime Stability pH 4-8 [2] | Compound | RS test [1]
 | CC(=O)N/N=C/c1ccc(C[C@H](N)C(=O)O)cc1 | √
 | CC(=O)CC(=O)c1ccc(C[C@H](N)C(=O)O)cc1 | Meta- bolized
 | CC(=O)c1ccc(C[C@H](N)C(=O)O)cc1 | √
— — | N[C@@H](Cc1ccc2c(c1)NC(=O)C2=O)C(=O)O | 

Reference: patent US8846876B2, “Compositions containing, methods involving, and uses of non-natural amino acids and polypeptides” (Abrx, Inc., priority 2004, dated 2014)
